Assay results from patent US20240109914A1, “IMIDAZOTHIAZOLE COMPOUNDS AND ANALOGS THEREOF AND METHODS FOR TREATING NEMATODE INFECTIONS IN PLANTS” (The Governing Council of The University of Toronto, priority 2021, published 2024).
Like-named read-outs stand apart in the source and are kept apart here.

Columns and labels:
M. hapla eggs = experiment: Meloidogyne hapla in vitro egg hatch assay; format: in vivo; conditions: 45 μM; for Number of Hatched Eggs: 8 days at room temperature, about 90 eggs per well, tested once; for Number of Hatched Eggs z-score: 8 days, z-score vs 8 untreated DMSO wells
Method in brief: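 About 90 eggs per well, freed from carrot-root egg masses with 10% bleach for 4 min, were exposed in deionized water to 0.5 μL compound or DMSO. Hatched eggs were counted after 8 days at room temperature without shaking in humid conditions. Each treatment was tested once, with z-scores calculated from 8 untreated DMSO control wells.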

M. incognita J2 larvae = experiment: Meloidogyne incognita in vitro larval mobility assay; format: in vivo; conditions: 45 μM, 4 days; for Replicate 1 z-score / Replicate 2 z-score: z-score vs untreated DMSO wells; for pest or weed control at 45 µM: Meloidogyne incognita, 96 h
Method in brief: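 Infective J2 juveniles of M. incognita Race 1, about 35 per well, were exposed to compound at 45 μM in deionized water with 0.5% DMSO for 4 days at 25° C without shaking. Immobile worms were counted as % of total, averaged over two replicates. A z-score against DMSO control wells was also computed, with z > 1.645 in both replicates marking a hit.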

M. chitwoodi J2 larvae = experiment: Meloidogyne chitwoodi in vitro larval mobility assay; format: in vivo; conditions: Meloidogyne chitwoodi, 48 h, 2 days, average of three replicates, read-out: % Immobile
Protocol: M. chitwoodi race 1 (the strain commonly found in the pacific northwest of the United States) was used for all experiments, and was maintained on tomato plants (Solanum lycopersicum ‘Rutgers’) as previously described^47. The microwell dose-response experiments were carried out similarly to previously described protocols^44,46. […] The chemicals were tested at 45 μM, and the final concentration of DMSO in each well was 0.5% (v/v). The wells were covered with a plastic adhesive strip, and the lids of the plates were sealed with parafilm. The plates were incubated at 25° C. for 2 days. The percent of worms that were immobile (% immobile) was quantified by counting the number of immobile worms after 2 days of incubation, dividing the number of immobile worms by the total number of worms in the well, and then multiplying by 100. […] The average % immobile value was calculated across the three replicates.

C. elegans = C. elegans dose-response (viability, minimum lethal concentration); format: in vivo, Caenorhabditis elegans; conditions: Caenorhabditis elegans, 72 h, L1 worms, 3 days at 20° C.
Protocol: Forty microliters of an HB101 E. coli bacterial suspension in liquid NGM (nematode growth media—see ref. 42 for the recipe) was added to each well of a 96-well flat-bottom culture plate, after which approximately 25 synchronized L1 worms, in 10 μl of M9 buffer (see ref. 43 for the recipe), were added to each well. The synchronized L1 worms were obtained from an embryo preparation performed the previous day (see ref. 43 for the protocol). For the L1 assays, 0.5 μl of test compound solution (or DMSO alone) was immediately added to the wells using a multichannel pipette; the final DMSO concentration is 1% (v/v). The worms were incubated for 3 days at 20° C. and the number of viable animals was counted.
At least three biological replicates were performed for each dose-response assay. For each biological replicate, two technical replicates were performed and the numbers of viable animals for each technical replicate were combined (i.e. ˜ 50 worms assayed per concentration). The number of viable worms at each concentration was divided by the corresponding DMSO control value to give the “relative viability” for each concentration. The “relative viability” values were then averaged across the biological replicates. Minimum lethal concentration was defined as the lowest concentration at which at least 20% of worms die.

tomato plants = experiment: Root mass of tomato plants in the soil infectivity assay; conditions: 45 μM in soil, 8 weeks
Protocol: For the infectivity assays, 90 grams of soil (1:1 sand:loam mix) was added to each cell of several 6-cell plastic garden packs. The soil was drenched with 18 mL of deionized water containing dissolved test compound or DMSO alone. 2,500 infective J2 juveniles were then added to the soil in 2 mL of deionized water, for a total water volume of 20 mL. […] The DMSO concentration varied from 0.1% to 0.8% (v/v) depending on the stock concentration of the test compound. The highest DMSO concentration was used as the DMSO control. The J2s were incubated in the soil and chemical for 24 hours, after which two- to three-week old tomato seedlings were transplanted into the soil (one plant per cell). Two replicates were performed for each chemical treatment, and four replicates were done for the DMSO controls. The whole experiment was replicated twice, in two different batches on two different days, for a total of four replicates for each test compound treatment, and eight replicates for the DMSO controls. Inoculated plants were grown for 8 weeks in a greenhouse, as described^47, under long-day conditions (16-h photoperiod) with 26/18° C. day/night temperatures. After 8 weeks, the plants were destructively harvested. The tops were removed and discarded, and roots were gently washed with water to remove adhering soil. Eggs were extracted by placing rinsed roots in 0.6% sodium hypochlorite and agitating at 300 rpm for 3 min. Roots were then rinsed over nested 250—and 25.4-μm sieves, with eggs collected from the latter and suspended in water. Roots were dried in a 65° C. oven for at least 24 hours, after which dry roots were weighed. The number of eggs from each plant root was counted on a dissection microscope using a haemocytometer, and the number of eggs per milligram of root was calculated by dividing the total egg number by the mass of the dried root material. An average was taken across the replicates performed on the same day, and then normalized to the DMSO control average. […] An average percent effectiveness value was then calculated across the two different batches carried out on different days.

M. incognita = experiment: Meloidogyne incognita infectivity assay (soil, tomato roots); format: in vivo; conditions: Meloidogyne incognita, 1344 h, 45 μM in soil, 8 weeks, eggs per mg root relative to DMSO control, read-out: % effectiveness at inhibiting reproduction of M. incognita
Excerpt: An M. incognita population originally collected from grape (Vitis vinifera) in Parlier, California, was used for all experiments, and they were maintained on tomato plants (Solanum lycopersicum ‘Rutgers’) as previously described^47. Infective J2 juveniles were collected as described in ref. 47.

[1] = average of the two replicates, read-out: Average % Immobile
[2] = replicate 1, read-out: Replicate 1 % Immobile
[3] = replicate 2, read-out: Replicate 2 % Immobile
[4] = lowest concentration at which at least 20% of worms die, read-out: Minimum Lethal Concentration
[5] = same values in ppm, read-out: Minimum Lethal Concentration (ppm)

Structure (SMILES)	Number of Hatched Eggs (M. hapla eggs)	Number of Hatched Eggs z-score (M. hapla eggs)	Replicate 1 z-score (M. incognita J2 larvae; replicate 1)	Replicate 2 z-score (M. incognita J2 larvae; replicate 2)	pest or weed control at 45 µM (M. incognita J2 larvae; [1])	pest or weed control at 45 µM (M. incognita J2 larvae; [2])	pest or weed control at 45 µM (M. incognita J2 larvae; [3])	pest or weed control at 45 µM (M. chitwoodi J2 larvae)	minimal effective concentration (C. elegans; [4])	minimal effective concentration (C. elegans; [5])	Normalized root mass (relative to DMSO control) (tomato plants)	pest or weed control at 45 µM (M. incognita)
O=C(NCCc1ncc(C(F)(F)F)cc1Cl)c1ccccc1C(F)(F)F [Fluopyram, fluopyram, reference compound]	0	[4.63]	[14.82]	[21.99]	100%	100%	100%	100%	–	–	–	–
Fc1cccc(-c2cn3ccsc3n2)c1 [I-14]	1	[4.30]	[15.43]	[13.11]	≥ 75%	98.2%	82.2%	–	100 µM	21.8 µg/mL	1.28	17.6%
Cc1c(-c2cccc(Br)c2)nc2sccn12 [I-35]	2	[3.97]	–	–	–	–	–	–	> 50 µM	14.7 µg/mL	1.26	10.2%
Cc1c(-c2ccc(Br)cc2)nc2sccn12 [I-33]	–	–	[1.78]	[4.16]	32.1%	31.4%	32.8%	58.1%	12.5 µM	3.7 µg/mL	1.45	7.9%
Clc1ccc(-c2cn3ccoc3n2)cc1 [I-47, 6-(4-chlorophenyl)imidazo[2,1-b]oxazole]	1	[4.30]	[14.96]	[15.52]	–	95.9%	95.6%	62.7%	50 µM	10.9 µg/mL	–	–
c1cncc(-c2cn3ccsc3n2)c1 [I-45]	–	–	[1.92]	[3.20]	29.8%	32.1%	27.4%	13.8%	> 100 µM	> 20.1 µg/mL	–	–
Cc1csc2nc(-c3cccc(Cl)c3)cn12 [I-25]	4	[3.31]	–	–	–	–	–	–	> 100 µM	> 24.9 µg/mL	1.27	24.6%
Cc1c(-c2ccccc2)nc2sccn12 [I-1]	–	–	–	–	–	–	–	48.2%	> 100 µM	> 21.4 µg/mL	–	–
Cc1c(-c2ccc(F)cc2)nc2sccn12 [I-13]	–	–	[2.58]	[2.14]	28.4%	35.3%	21.6%	32.4%	> 100 µM	> 23.2 µg/mL	1.12	0%
Cc1cn2cc(-c3cccc(F)c3)nc2s1 [I-17]	3	[3.64]	–	–	–	–	–	–	100 µM	23.2 µg/mL	1.30	21.8%
Cc1csc2nc(-c3ccccc3Cl)cn12 [I-29]	4	[3.31]	–	–	–	–	–	–	100 µM	24.9 µg/mL	1.14	15%
Clc1ccccc1-c1cn2ccsc2n1 [I-27]	4	[3.31]	[6.81]	[3.28]	42%	56%	27.9%	–	100 µM	23.5 µg/mL	1.42	0%
Clc1ccc(-c2cn3ccsc3n2)cc1Cl [I-31]	1	[4.30]	[2.33]	[4.78]	35.1%	34.1%	36.2%	–	6.25 µM	1.7 µg/mL	1.25	18.1%
Cc1c(-c2ccc(Cl)cc2)nc2sccn12 [I-22]	1	[4.30]	[7.55]	[4.26]	46.5%	59.6%	33.3%	> 75%	12.5 µM	3.1 µg/mL	–	–
